# From ChEMBL document CHEMBL1201862, “PubChem BioAssay data set” (2004)
#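 Five concentrations, 48 hours, 96-well plates. GI50 is the concentration that inhibits growth by half.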 Activity calls are given as the source filed them. Cut-off read from the data, not from the text of the source: active = GI50 up to about 1.1 µM and inactive = higher.
# Legend:
# Test in all cases: NCI tumour cell line growth inhibition, 48 h
# DMS-273 = test system: DMS-273
# LXFL 529 = test system: LXFL 529
# M19-MEL = test system: M19-MEL
# RXF 631 = test system: RXF 631
# KM-20L2 = test system: KM-20L2
# HOP-18 = test system: HOP-18
# DLD-1 = test system: DLD-1
# SNB-78 = test system: SNB-78
# XF498 = test system: XF498
Compound,GI50 (DMS-273),GI50 (LXFL 529),GI50 (M19-MEL),GI50 (RXF 631),GI50 (KM-20L2),GI50 (HOP-18),GI50 (DLD-1),GI50 (SNB-78),GI50 (XF498)
Cc1ccc(S(=O)(=O)N/N=C(\c2nc3ccc([N+](=O)[O-])cc3nc2O)C(O)c2ccccc2Cl)cc1 (stereo not given),> 100 µM (inactive),35.8 µM (inactive),86.9 µM (inactive),> 100 µM (inactive),> 100 µM (inactive),> 100 µM (inactive),> 100 µM (inactive),> 100 µM (inactive),–
COC(=O)CCSC(=O)Nc1ccccc1Cl,> 100 µM (inactive),> 100 µM (inactive),–,–,> 100 µM (inactive),–,> 100 µM (inactive),> 100 µM (inactive),–
COc1ccc(/N=N/c2c(-c3ccccc3)nn(C(=O)CC(=O)Nc3cccc(Cl)c3)c2-c2ccccc2)cc1,> 100 µM (inactive),> 100 µM (inactive),> 100 µM (inactive),–,66.1 µM (inactive),66.8 µM (inactive),40.6 µM (inactive),–,> 100 µM (inactive)
CSc1nc(NC2OCC(O)C(O)C2O)c(N)c(=O)[nH]1 (stereo not given),> 100 µM (inactive),–,> 100 µM (inactive),–,> 100 µM (inactive),> 100 µM (inactive),> 100 µM (inactive),> 100 µM (inactive),–
CC1(C)C(O)OC(O)C1(C)C (stereo not given),70.5 µM (inactive),74 µM (inactive),> 100 µM (inactive),61 µM (inactive),> 100 µM (inactive),49.1 µM (inactive),52.5 µM (inactive),> 100 µM (inactive),47 µM (inactive)
O=C(CC1(O)C(=O)Nc2c(Cl)cc(Cl)cc21)c1ccc(F)cc1 (stereo not given),38.2 µM (inactive),31.9 µM (inactive),19 µM (inactive),32.5 µM (inactive),53 µM (inactive),72.1 µM (inactive),46.8 µM (inactive),83.9 µM (inactive),14.4 µM (inactive)
COc1ccc(C(c2ccc(C(C)C)cc(OC)c2=O)c2ccc(C(C)C)cc(OC)c2=O)cc1,14.8 µM (inactive),14.5 µM (inactive),14.1 µM (inactive),15 µM (inactive),14.1 µM (inactive),25.4 µM (inactive),6.3 µM (inactive),13.2 µM (inactive),20.4 µM (inactive)
CC(=O)OC[C@@H]1[C@H]2CC(=O)O[C@H]2C[C@H]1OC(C)=O,> 100 µM (inactive),> 100 µM (inactive),> 100 µM (inactive),–,> 100 µM (inactive),> 100 µM (inactive),> 100 µM (inactive),> 100 µM (inactive),–
COc1ccc(-c2oc3cc(O)c(OC)c(O)c3c(=O)c2O)cc1 [BETULETOL],9.68 µM (inactive),20.1 µM (inactive),38.8 µM (inactive),21.5 µM (inactive),39.7 µM (inactive),67.3 µM (inactive),13.4 µM (inactive),81.3 µM (inactive),24.9 µM (inactive)
C=CCC1(CN(C)C)CC/C(=C\c2ccc(Cl)cc2)C1=O (stereo not given),24.7 µM (inactive),27.5 µM (inactive),32.3 µM (inactive),–,22.8 µM (inactive),> 54.1 µM (inactive),32.1 µM (inactive),27.4 µM (inactive),77.6 µM (inactive)
C=C1C(=O)OC2C=C(CCC(C)=O)C(C)C(OC(C)=O)CC12 (stereo not given),–,0.447 µM (active),14.6 µM (inactive),–,4.89 µM (inactive),11.7 µM (inactive),–,7.94 µM (inactive),12.9 µM (inactive)
C[C@]12CC[C@H](OCCC#N)CC1=CC[C@@H]1C2CC[C@]2(C)/C(=N/OCCC#N)CCC12 (stereo not given in full),42.2 µM (inactive),> 74.6 µM (inactive),> 100 µM (inactive),–,> 100 µM (inactive),> 100 µM (inactive),> 100 µM (inactive),22.8 µM (inactive),3.4 µM (inactive)
COC1(C)C(=O)N2C1N(C(=O)OCc1ccccc1)CC2(C)C (stereo not given),> 100 µM (inactive),> 100 µM (inactive),> 100 µM (inactive),–,> 100 µM (inactive),–,> 100 µM (inactive),–,> 100 µM (inactive)
CCCCCCCCCCOC(=O)NCCC,20.6 µM (inactive),38 µM (inactive),34.5 µM (inactive),27.6 µM (inactive),22.8 µM (inactive),26.7 µM (inactive),34.8 µM (inactive),–,18.2 µM (inactive)
CC[C@@]1(OC(=O)C(N)CCCCN)C(=O)OCc2c1cc1n(c2=O)Cc2cc3ccccc3nc2-1 (stereo not given in full),< 0.01 µM (active),0.372 µM (active),0.0619 µM (active),–,0.166 µM (active),0.0785 µM (active),0.494 µM (active),0.372 µM (active),0.201 µM (active)
Nc1ccn([C@@H]2C=C(CO)[C@@H](O)[C@H]2O)c(=O)n1,0.256 µM (active),–,0.308 µM (active),–,0.0912 µM (active),8.09 µM (inactive),0.151 µM (active),3.28 µM (inactive),6.22 µM (inactive)
Cc1[nH]c2ccccc2c1C(=O)/C=C/c1ccccc1O,> 100 µM (inactive),> 100 µM (inactive),> 100 µM (inactive),–,> 100 µM (inactive),> 100 µM (inactive),> 100 µM (inactive),–,> 100 µM (inactive)
Cc1ccc(/C=N/NS(=O)(=O)c2ccccc2)cc1,> 100 µM (inactive),> 100 µM (inactive),–,> 100 µM (inactive),> 100 µM (inactive),> 100 µM (inactive),> 100 µM (inactive),> 100 µM (inactive),> 100 µM (inactive)
COCCOCC(=O)N(CCn1ccc(NC(c2ccccc2)(c2ccccc2)c2ccccc2)nc1=O)CCn1cnc2nc(N)[nH]c(=O)c21,> 100 µM (inactive),> 100 µM (inactive),–,> 100 µM (inactive),> 100 µM (inactive),> 100 µM (inactive),> 100 µM (inactive),> 100 µM (inactive),–
Cc1cc(C)nc(NS(=O)(=O)c2ccc(NC(=O)c3cccc4cc5ccccc5nc34)cc2)n1,21.9 µM (inactive),36.1 µM (inactive),28.2 µM (inactive),28.5 µM (inactive),37.2 µM (inactive),–,27.5 µM (inactive),25.2 µM (inactive),25.3 µM (inactive)
